Results: patent US20190029252A1, “Use of Herbicide-tolerant Protein” (BEIJING DABEINONG TECHNOLOGY GROUP CO., LTD., priority 2016, published 2019)

How the values were obtained:
Assay type in all cases: in vivo
[1] = system: transformed Arabidopsis thaliana T1 plants (ALT-1, ALT-2 and ALT-3); assay: Herbicide tolerance of transgenic Arabidopsis thaliana T1 plants, overall conclusion; conditions: transgenic Arabidopsis thaliana T1 plants; 18 g ai/ha
Excerpt: (§1) Plants were counted for the resistance situations 14 days after spraying: those having a consistent growth status with the blank solvent (water) group after 14 days were classified as highly resistant plants, those having a bolting height less than ½ of that of the blank solvent (water) group after 14 days were classified as moderately resistant plants, those still not capable of bolting after 14 days were classified as poorly resistant plants, and those dead after 14 days were classified as non-resistant plants. Since each Arabidopsis thaliana T1 plant was an independent transformation event, a significant difference in individual T1 responses could be expected at a given dose.
as §1, with “situation” for “situations”

[2] = system: Zm cytoplasmic ALT-3-02 maize plants; assay: Tribenuron-methyl tolerance of maize plants, damage degree after spraying; conditions: 72 g ai/ha (4-fold field concentration)
Procedure: (§2) The damage degree caused by the herbicide was measured for each plant according to the plant growth status 3 days after spraying (3 DAT), 7 days after spraying (7 DAT), 14 days after spraying (14 DAT) and 21 days after spraying (21 DAT), respectively: considering a growth status equivalent to that of the untreated plants as having a damage degree of 0%; considering conditions of leaves being partially chlorotic and yellow but substantially not affecting the plant normal growth as having a damage degree of 50%; and considering the whole plant being purple and dying as having a damage degree of 100%. There were 2 strains in Zm cytoplasmic ALT-1-02 maize plants in total (S13 and S14), 2 strains in Zm chloroplastic ALT-1-02 maize plants in total (S15 and S16), 2 strains in Zm cytoplasmic ALT-2-02 maize plants in total (S17 and S18), 2 strains in Zm chloroplastic ALT-2-02 maize plants in total (S19 and S20), 2 strains in Zm cytoplasmic ALT-3-02 maize plants in total (S21 and S22), 2 strains in Zm chloroplastic ALT-3-02 maize plants in total (S23 and S24), and 1 strain in wild-type maize plants (CK2) in total; and 10-15 plants were selected from each strain and tested.

[3] = system: Zm chloroplastic ALT-2-02 maize plants; assay: as above; conditions: 72 g ai/ha (4-fold field concentration)
Procedure: as §2

[4] = system: Zm chloroplastic ALT-3-02 maize plants; assay: as above; conditions: 72 g ai/ha (4-fold field concentration)
Procedure: as §2

[5] = system: Zm chloroplastic ALT-1-02 maize plants; assay: as above; conditions: 72 g ai/ha (4-fold field concentration)
Procedure: as §2

[6] = system: Zm cytoplasmic ALT-1-02 maize plants; assay: as above; conditions: 72 g ai/ha (4-fold field concentration)
Procedure: as §2

[7] = system: Zm cytoplasmic ALT-2-02 maize plants; assay: as above; conditions: 72 g ai/ha (4-fold field concentration)
Procedure: as §2

[8] = system: wild-type maize plants (CK2); assay: as above
Procedure: as §2

[9] = maize strain S21 (Zm cytoplasmic ALT-3-02)
[10] = maize strain S22 (Zm cytoplasmic ALT-3-02)
[11] = maize strain S19 (Zm chloroplastic ALT-2-02)
[12] = maize strain S20 (Zm chloroplastic ALT-2-02)
[13] = maize strain S23 (Zm chloroplastic ALT-3-02)
[14] = maize strain S24 (Zm chloroplastic ALT-3-02)
[15] = maize strain S15 (Zm chloroplastic ALT-1-02)
[16] = maize strain S16 (Zm chloroplastic ALT-1-02)
[17] = maize strain S13 (Zm cytoplasmic ALT-1-02)
[18] = maize strain S14 (Zm cytoplasmic ALT-1-02)
[19] = maize strain S17 (Zm cytoplasmic ALT-2-02)
[20] = maize strain S18 (Zm cytoplasmic ALT-2-02)
[21] = maize strain CK2 (wild-type), 72 g ai/ha (4-fold field concentration)

SMILES: COC(=O)c1ccccc1S(=O)(=O)NC(=O)N(C)c1nc(C)nc(OC)n1 [tribenuron-methyl, methyl 2-[N-(4-methoxy-6-methyl-1,3,5-triazin-2-yl)-N-methylaminoformamidosulfonyl]benzoate]
- herbicide tolerance conferred by thifensulfuron hydrolase (in words) [1]: conferred tribenuron-methyl herbicide tolerance
- Average damage % 3DAT [2, 9]: 3%
- Average damage % 7DAT [2, 9]: 0%
- Average damage % 14DAT [2, 9]: 0%
- Average damage % 21DAT [2, 9]: 0%
- Average damage % 3DAT [2, 10]: 5%
- Average damage % 7DAT [2, 10]: 0%
- Average damage % 14DAT [2, 10]: 0%
- Average damage % 21DAT [2, 10]: 0%
- Average damage % 3DAT [3, 11]: 0%
- Average damage % 7DAT [3, 11]: 0%
- Average damage % 14DAT [3, 11]: 0%
- Average damage % 21DAT [3, 11]: 0%
- Average damage % 3DAT [3, 12]: 0%
- Average damage % 7DAT [3, 12]: 0%
- Average damage % 14DAT [3, 12]: 0%
- Average damage % 21DAT [3, 12]: 0%
- Average damage % 3DAT [4, 13]: 0%
- Average damage % 7DAT [4, 13]: 0%
- Average damage % 14DAT [4, 13]: 0%
- Average damage % 21DAT [4, 13]: 0%
- Average damage % 3DAT [4, 14]: 0%
- Average damage % 7DAT [4, 14]: 0%
- Average damage % 14DAT [4, 14]: 0%
- Average damage % 21DAT [4, 14]: 0%
- Average damage % 3DAT [5, 15]: 0%
- Average damage % 7DAT [5, 15]: 0%
- Average damage % 14DAT [5, 15]: 0%
- Average damage % 21DAT [5, 15]: 0%
- Average damage % 3DAT [5, 16]: 0%
- Average damage % 7DAT [5, 16]: 0%
- Average damage % 14DAT [5, 16]: 0%
- Average damage % 21DAT [5, 16]: 0%
- Average damage % 3DAT [6, 17]: 4%
- Average damage % 7DAT [6, 17]: 0%
- Average damage % 14DAT [6, 17]: 0%
- Average damage % 21DAT [6, 17]: 0%
- Average damage % 3DAT [6, 18]: 5%
- Average damage % 7DAT [6, 18]: 0%
- Average damage % 14DAT [6, 18]: 0%
- Average damage % 21DAT [6, 18]: 0%
- Average damage % 3DAT [7, 19]: 6%
- Average damage % 7DAT [7, 19]: 0%
- Average damage % 14DAT [7, 19]: 0%
- Average damage % 21DAT [7, 19]: 0%
- Average damage % 3DAT [7, 20]: 5%
- Average damage % 7DAT [7, 20]: 0%
- Average damage % 14DAT [7, 20]: 0%
- Average damage % 21DAT [7, 20]: 0%
- Average damage % 7DAT [8, 21]: 86%
- Average damage % 14DAT [8, 21]: 100%
- Average damage % 21DAT [8, 21]: 100%
- herbicide tolerance (in words) ([8]; wild-type maize plants, 72 g ai/ha): not tolerant
